PMC5767893 (ACS Medicinal Chemistry Letters, 2017)

Tests used:
[1] = target: T1, p300 HAT domain (Homo sapiens, UniProt Q09472); conditions: for LE (ligand efficiency): LE = −1.4 log Ki/# heavy atoms
T1 sequence (Q09472 1287-1663 limits assumed): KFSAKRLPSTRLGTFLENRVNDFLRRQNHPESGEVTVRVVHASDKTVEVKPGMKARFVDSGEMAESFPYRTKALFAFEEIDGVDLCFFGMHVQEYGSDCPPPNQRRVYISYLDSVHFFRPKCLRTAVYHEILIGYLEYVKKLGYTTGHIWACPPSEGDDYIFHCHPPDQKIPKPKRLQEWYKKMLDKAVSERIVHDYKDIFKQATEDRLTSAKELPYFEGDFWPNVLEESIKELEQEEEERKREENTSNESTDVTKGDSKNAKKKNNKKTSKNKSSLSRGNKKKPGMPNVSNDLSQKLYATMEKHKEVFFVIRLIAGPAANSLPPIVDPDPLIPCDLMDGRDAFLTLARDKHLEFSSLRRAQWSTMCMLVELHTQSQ

[2] = mouse
[3] = Mouse microsomal stability; format: in vitro ADME; conditions: microsomes
[4] = Nonspecific microsomal binding; format: in vitro ADME; conditions: human, microsomes
[5] = Plasma protein binding; format: in vitro ADME; conditions: mouse
[6] = in vivo; conditions: mouse, plasma, po, 1 mg/kg

CC(C1CC1)N(Cc1ccccc1)C(=O)CN1C(=O)NC(Cc2c[nH]c3ccccc23)C1=O (stereo not drawn) [Compound 1]
LE (ligand efficiency) [1]: 0.23 | LipE (lipid efficiency) ([1]; LipE = −log Ki – clogP): 3

Cc1ccccc1C1NC(=O)N(CC(=O)N(Cc2ccccc2)[C@@H](C)C2CC2)C1=O (stereo partly drawn) [Compound 3b]
LE (ligand efficiency) [1]: 0.27

CNC(=O)Nc1ccc2c(c1)CC[C@]21NC(=O)N(CC(=O)N(Cc2ccccc2)[C@@H](C)C2CC2)C1=O [Compound 20]
oral AUC ([2]; 10 mg/kg oral dose): no exposure

CNC(=O)Nc1ccc2c(c1)CC[C@@]21OC(=O)N(CC(=O)N(Cc2ccccc2)[C@@H](C)C2CC2)C1=O [Compound 22]
CLint scaled [3]: 3130 mL/min/kg | mouse microsomal stability CL scaled [3]: 107 L/h/kg

CNC(=O)Nc1ccc2c(c1)CC[C@@]21OC(=O)N(CC(=O)N(Cc2ccc(F)cc2)[C@H](C2CC2)C(F)(F)F)C1=O [Compound 23]
fraction unbound [4]: 0.22 | F % oral [2]: 45% | CLint scaled [3]: 3020 mL/min/kg | mouse microsomal stability CL scaled [3]: 41 L/h/kg | fraction unbound [5]: 0.002 | AUC [6]: 1100 ng·h/mL
